Experimental data from patent US11890348B2, “Localized delivery of anti-fugetactic agent for treatment of cancer” (THE GENERAL HOSPITAL CORPORATION, priority 2015, dated 2024).

Columns and labels:
human CD3 T cells = conditions: T cells incubated with 0.01 μM to 10 mM AMD3100 before addition to the chamber; harvest after 3 h
Protocol: For quantitative transmigration assays, purified human CD3′ T cells (approximately 2×10^4 cells) are added to the upper chamber of a Transwell®, insert in each well, to a total volume of 150 μl of Iscove's modified medium.
To determine the anti-fugetactic concentration of AMD3100, the T cells are incubated with 0.01 μM to 10 mM AMD3100 prior to addition to the chamber.
Cells are harvested from the lower chamber after 3 h, and cell counts are performed using a hemocytometer.

human CD3+ T cells = system: human CD3+ T cells
Protocol: Freshly prepared and purified human CD3^+ T cells were prepared from healthy donor peripheral blood. 20,000 T cells were loaded into the upper chamber of the Transwell in control, chemotactic or fugetactic settings with AMD3100 at concentrations between 0.1 μM and 10 μM. Migrated cells were counted in the lower chamber and migration quantitated as previously described. Vianello et al. The Journal of Immunology, 2006, 176: 2902-2914; Righi et al., Cancer Res.; 71(16): 5522-34, each of which is incorporated herein in its entirety.
All wells were run in triplicate.

With `c1cc(CN2CCCNCCNCCCNCC2)ccc1CN1CCCNCCNCCCNCC1` [AMD3100] the “effect on T cell migration (anti-fugetactic at lower, fugetactic at higher concentrations)” value (human CD3 T cells) was “bimodal effect”, the “effect on human T cell chemotaxis” value (human CD3+ T cells; FIG. 1, AMD3100 0.1 μM to 10 μM) was “bimodal effect” and the “effect on human T cell fugetaxis” value (human CD3+ T cells; FIG. 2, AMD3100 0.1 μM to 10 μM, antifugetactic properties observed in a specific range) was “bimodal effect”. The “chemotactic index (CI), chemotactic response” value (human CD3+ T cells; chemotactic setting, AMD3100 at 1 μM, CI of 1.0 is the control, FIG. 1, triplicate wells) was 2.3 and the “chemotactic index (CI), fugetactic response” value (human CD3+ T cells; fugetactic setting, AMD3100 at 0.1 μM, CI of 1.0 is the control, FIG. 2, triplicate wells) was 1.6.
